Columns and labels:
[1] = for Transport of total TST derivatives in lymph (% of dose): anaesthetised, mesenteric lymph-duct cannulated female SD rats, intraduodenal infusion 0-2 h, cumulative over 8 h; for Fold increase (compared with control group dosed with TU): lymphatic transport of total TST derivatives, female SD rats, intraduodenal infusion
Method: Lipid formulations containing the compound of interest were then administered to the animals, the lymph collected and drug concentrations in the lymph subsequently quantified.
Lipid-based formulations of the compounds of the invention or control compounds were prepared as previously described (Trevaskis, N. L. et al., Pharmaceutical Research, 2005, 22(11), 1863-1870). Briefly, approximately 2 mg of the compound (1 mg in the case of Compound 35 and Compound 1), 40 mg oleic acid and 25 mg Tween 80 were mixed in a glass vial until equilibrated (gentle heat (below 50° C.) may be applied for a short period).
[…] This was to eliminate the potential for the relatively high and variable levels of endogenous testosterone in male rats interfering with the quantification of exogenously dosed testosterone. Rats (240-320 g) were maintained on a standard diet and fasted overnight with free access to water prior to experiments. Anaesthetised rats were placed on a heated pad at 37° C. and cannulas were inserted into the duodenum (for formulation administration and rehydration), mesenteric lymph duct (for lymph collection) and carotid artery (for blood collection) as previously described (Edwards et al. Advanced Drug Delivery Reviews 2001, 50(1), 45-60). Post-surgery, rats were re-hydrated for 0.5 h via intraduodenal infusion of normal saline at 2.8 mL/h. The lipid formulations were infused into the duodenum at 2.8 mL/h for 2 h, after which the infusion was changed to 2.8 mL/h normal saline for the remainder of the experiment. Lymph was continuously collected for 6 to 8 h into pre-weighed Eppendorf tubes containing 10 μL of 1,000 IU/mL heparin. The collection tubes were changed hourly and lymph flow was measured gravimetrically. Aliquots of hourly lymph samples were stored at −80° C. prior to assay.
Drug concentration in lymph is expressed as total drug and includes free drug and drug associated with different glycerides. This is assayed by hydrolysis of lymph (to liberate drug from any re-esterified glycerides) prior to assessment of free drug.
FIG. 1 illustrates the cumulative lymphatic transport of total testosterone related derivatives (% of administered dose) versus time in anaesthetised mesenteric lymph duct cannulated female SD rats following intraduodenal infusion of formulations from 0 to 2 h. Each Formulation contained 2 mg of the exemplified compound or the control, testosterone undecanoate (TU), dispersed in 40 mg oleic acid, 25 mg Tween 80 and 5.6 ml PBS.

[2] = Pharmacokinetic study in rats, testosterone plasma concentrations after oral gavage; conditions: for AUC0-24 h fold increase compared with TU group / Tmax / AUC0-24 h / Cmax: testosterone in plasma, oral gavage; for AUC0-24 h fold increase compared with TU group: dose-normalized; for Tmax / AUC0-24 h / Cmax: conscious carotid artery cannulated SD female rats; for AUC0-24 h / Cmax: normalized to 2 mg/kg equivalent testosterone dose
Method: In order to assess the oral bioavailability of the compounds of the invention, pharmacokinetic studies were conducted in rats and dogs. […] The rats were then allowed to regain consciousness and fasted overnight prior to the commencement of experiments with free access to water. […] The oral formulation of Compound 2 contained 3 mg of the compound, 20 mg oleic acid and 12.5 mg Tween 80 dispersed in 1 mL PBS. Blood samples were collected from the carotid artery cannula from 5 min prior to administration up to 24 h post-dosing and centrifuged at 5000 rpm for 5 min to separate plasma. […] Plasma samples were stored at −80° C. prior to assay by HPLC-MS-MS. In this case samples were assayed for free drug (i.e. non-glyceride associated drug) and were not hydrolysed prior to assay (as was the case with the lymph samples).
FIG. 12 illustrates dose-normalized testosterone plasma concentrations following oral gavage of formulations to conscious, carotid artery cannulated female SD rats. Formulations contained 1 mg of TU, or 2 mg of compounds of the invention containing testosterone dispersed in 40 mg oleic acid, 25 mg Tween 80 and 2 ml PBS. Doses are normalized to a 2 mg/kg equivalent dose of testosterone. Data are shown as mean±SEM for all groups (n=4 or 3 for each group). The embedded figure is the plot of the dose-normalized plasma AUC0-24h (nmol×h/L) of testosterone in the form of a bar graph.

[3] = tested on: porcine pancreatic lipase; assay: In vitro hydrolysis by porcine pancreatic lipase; format: in vitro ADME; conditions: 37° C., simulated intestinal micellar solution pH 6.5, up to 180 min
Method: To provide for higher throughput of experiments, unless otherwise stated, in vitro hydrolysis of TST related compounds was performed via incubation with porcine pancreatic lipase. This provides a more reproducible source of pancreatic enzymes, facilitates enhanced experimental throughput and is also a greater challenge than collected rat enzymes (since enzyme activity in rat intestinal fluid is low). Briefly, pancreatic lipase solution was prepared prior to the hydrolysis experiment by dispersion of 1 g porcine pancreatin in 5 ml of lipolysis buffer and 16.9 μl of 5M NaOH. The suspension was mixed well and centrifuged at 3500 rpm for 15 minutes at 5° C. to provide a supernatant. An amount of 1000 ml of lipolysis buffer was prepared with 0.474 g of tris-maleate (2 mM), 0.206 g of CaCl2.H2O (1.4 mM) and 8.775 g of NaCl (150 mM) adjusted with NaOH to pH 6.5. To assess the potential for prodrug hydrolysis in the intestine, 20 μl of prodrug solution (1 mg/ml dissolved in acetonitrile), 900 μl of simulated intestinal micellar solution [prepared with 0.783 g of NaTDC (3 mM) and 0.291 g of phosphatidyl choline (0.75 mM) in 500 ml lipolysis buffer] and 100 μl of enzyme solution were incubated at 37° C. 20 μl samples of the incubation solution were taken at 0, 5, 10, 15, 30, 60, 90, 120 and 180 minutes post incubation and added to 180 μl of ACN to stop lipolysis. The mixture was vortexed and centrifuged at 5000 rpm for 5 minutes to precipitate proteins prior to analysis. The supernatant was analysed by HPLC-MS for residual compound concentrations, and the potential products of compound hydrolysis were analysed.
On incubation with digestive enzymes the monoglycerides forms of the prodrugs are formed very rapidly. The stability in simulated intestinal conditions is therefore better assessed by the stability of the monoglycerides form that is generated by the initial digestion process. The monoglycerides form must remain intact to be absorbed and re-esterified in the enterocyte prior to entry into the lymphatics. […] This is consistent with the increase in lymphatic transport of Compound 18 when compared to Compound 10, and the high extent of lymphatic transport of Compound 16 in FIG. 4.

CCCCCCCCCCCCCCCC(=O)OCC(COC(=O)CCCCCCCCCCCCCCC)OC(=O)CCCCC(=O)O[C@H]1CC[C@H]2[C@@H]3CCC4=CC(=O)CC[C@]4(C)[C@H]3CC[C@]12C [Compound 11]
Transport of total TST derivatives in lymph (% of dose) [1]: 17.0 ± 1.6 % of dose | Fold increase (compared with control group dosed with TU) [1]: 9.0 fold | systemic exposure of parent testosterone (dose-normalised plasma AUC0-24h), fold greater than after Compound 41 or Compound 10 ([2]; oral administration, SD female rats): 10 fold | AUC0-24 h fold increase compared with TU group ([2]; SD female rats): 12.4 fold | Tmax [2]: 1.3 ± 0.1 h | AUC0-24 h [2]: 0.0842 ± 0.0093 µM·h | Cmax [2]: 69.9 ± 8.2 nM | stability of the monoglyceride form during in vitro incubation with porcine pancreatic lipase [3]: not highly stable

CCCCCCCCCCCCCCCC(=O)OCC(COC(=O)CCCCCCCCCCCCCCC)OC(=O)C(C)CCCCCCCC(=O)O[C@H]1CC[C@H]2[C@@H]3CCC4=CC(=O)CC[C@]4(C)[C@H]3CC[C@]12C (stereo partly drawn) [Compound 16]
Transport of total TST derivatives in lymph (% of dose) [1]: 23.2 ± 2.3 % of dose | Fold increase (compared with control group dosed with TU) [1]: 12.3 fold | AUC0-24 h fold increase compared with TU group ([2]; SD female rats): 15.8 fold | Tmax [2]: 1.3 ± 0.1 h | AUC0-24 h [2]: 0.1076 ± 0.014 µM·h | Cmax [2]: 77 ± 14.2 nM | stability of the monoglyceride form during in vitro incubation with porcine pancreatic lipase [3]: significantly stabilised the monoglyceride intermediates

CCCCCCCCCCCCCCCC(=O)OCC(COC(=O)CCCCCCCCCCCCCCC)OC(=O)CCCCC(=O)OCO[C@H]1CC[C@H]2[C@@H]3CCC4=CC(=O)CC[C@]4(C)[C@H]3CC[C@]12C [Compound 21, 1,3-Bis(palmitoyloxy)propan-2-yl (((8R,9S,10R,13S,14S,17S)-10,13-dimethyl-3-oxo-2,3,6,7-8,9,10,11,12,13,14-15,16,17-tetradecahydro-1H-cyclopenta[a]phenanthren-17-yl)oxy)methyl adipate]
AUC0-24 h fold increase compared with TU group ([2]; SD female rats): 44.0 fold | Tmax [2]: 0.7 ± 0.2 h | AUC0-24 h [2]: 0.2994 ± 0.1001 µM·h | Cmax [2]: 232 ± 63.2 nM | stability of the monoglyceride form during in vitro incubation with porcine pancreatic lipase [3]: lower than that of Compound 11

CCCCCCCCCCCCCCCC(=O)OCC(COC(=O)CCCCCCCCCCCCCCC)OC(=O)CC(C)CC(=O)Oc1cc(C)cc(C)c1C(C)(C)CC(=O)O[C@H]1CC[C@H]2[C@@H]3CCC4=CC(=O)CC[C@]4(C)[C@H]3CC[C@]12C (stereo partly drawn) [Compound 25]
AUC0-24 h fold increase compared with TU group ([2]; SD female rats): 58.5 fold | Tmax [2]: 0.9 ± 0.1 h | AUC0-24 h [2]: 0.3992 ± 0.0432 µM·h | Cmax [2]: 419 ± 63.3 nM | stability of the monoglyceride form during in vitro incubation with porcine pancreatic lipase [3]: remarkably stable

CCCCCCCCCCCCCCCC(=O)OCC(COC(=O)CCCCCCCCCCCCCCC)OC(=O)CC(C)CCCCCCC(=O)Oc1cc(C)cc(C)c1C(C)(C)CC(=O)O[C@H]1CC[C@H]2[C@@H]3CCC4=CC(=O)CC[C@]4(C)[C@H]3CC[C@]12C (stereo partly drawn) [Compound 27]
AUC0-24 h fold increase compared with TU group ([2]; SD female rats): 106.4 fold | Tmax [2]: 1.5 ± 0.5 h | AUC0-24 h [2]: 0.7238 ± 0.0905 µM·h | Cmax [2]: 428 ± 97.8 nM | stability of the monoglyceride form during in vitro incubation with porcine pancreatic lipase [3]: remarkably stable
